Data from the kinase profiling compilation of Christmann-Franck et al. (2016).

Legend:
Test in all cases: KINOMEscan competition binding
Details in all cases: compound 0.1 µM
[1] = system: EGFR (human), P00533 [T790M]
PAK1 (human) = PAK1 (human) (UniProt Q13153)
IRAK3 (human) = IRAK3 (human) (UniProt Q9Y616)
MAP2K7 (human) = MAP2K7 (human) (UniProt O14733)
[2] = system: RET (human), P07949 [V804L]
MKNK2 (human) = MKNK2 (human) (UniProt Q9HBH9)
RPS6KA1 KD2 (human) = RPS6KA1 KD2 (human) (UniProt Q15418)
[3] = system: EGFR (human), P00533 [T790M/L858R]
TBK1 (human) = TBK1 (human) (UniProt Q9UHD2)
SBK1 (human) = SBK1 (human) (UniProt Q52WX2)
NEK11 (human) = NEK11 (human) (UniProt Q8NG66)
PIK3CA (human) = PIK3CA (human) (UniProt P42336)
TAOK2 (human) = TAOK2 (human) (UniProt Q9UL54)
PRKG2 (human) = PRKG2 (human) (UniProt Q13237)
PHKG2 (human) = PHKG2 (human) (UniProt P15735)
PHKG2 (human), sequence (P15735 whole entry, looked up): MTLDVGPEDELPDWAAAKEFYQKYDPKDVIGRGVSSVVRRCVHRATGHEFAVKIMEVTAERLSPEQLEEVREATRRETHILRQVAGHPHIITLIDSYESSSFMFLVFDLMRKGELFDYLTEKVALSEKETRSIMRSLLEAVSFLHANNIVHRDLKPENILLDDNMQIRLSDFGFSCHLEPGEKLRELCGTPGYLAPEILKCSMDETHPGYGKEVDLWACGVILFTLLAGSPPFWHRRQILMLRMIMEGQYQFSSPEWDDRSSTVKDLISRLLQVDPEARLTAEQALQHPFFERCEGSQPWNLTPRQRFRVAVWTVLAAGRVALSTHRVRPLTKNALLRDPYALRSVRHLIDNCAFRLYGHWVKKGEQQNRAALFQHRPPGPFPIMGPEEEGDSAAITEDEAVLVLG

PKN1 (human) = PKN1 (human) (UniProt Q16512)
MAPK11 (human) = MAPK11 (human) (UniProt Q15759)
MAPK11 (human), sequence (Q15759 whole entry, looked up): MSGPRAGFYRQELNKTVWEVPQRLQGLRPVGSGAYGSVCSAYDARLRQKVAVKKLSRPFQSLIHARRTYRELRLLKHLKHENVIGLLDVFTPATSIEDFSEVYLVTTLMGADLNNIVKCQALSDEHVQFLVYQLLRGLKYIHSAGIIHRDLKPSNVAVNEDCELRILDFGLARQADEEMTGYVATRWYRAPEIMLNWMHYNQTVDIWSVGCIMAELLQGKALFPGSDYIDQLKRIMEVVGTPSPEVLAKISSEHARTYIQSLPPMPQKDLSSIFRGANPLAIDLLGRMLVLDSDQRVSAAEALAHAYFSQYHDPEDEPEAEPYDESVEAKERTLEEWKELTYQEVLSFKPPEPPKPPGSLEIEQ

NEK7 (human) = NEK7 (human) (UniProt Q8TDX7)
CDK7 (human) = CDK7 (human) (UniProt P50613)
INSR (human) = INSR (human) (UniProt P06213)
PKN2 (human) = PKN2 (human) (UniProt Q16513)
PRKCD (human) = PRKCD (human) (UniProt Q05655)
NEK5 (human) = NEK5 (human) (UniProt Q6P3R8)
NEK5 (human), sequence (Q6P3R8 whole entry, looked up): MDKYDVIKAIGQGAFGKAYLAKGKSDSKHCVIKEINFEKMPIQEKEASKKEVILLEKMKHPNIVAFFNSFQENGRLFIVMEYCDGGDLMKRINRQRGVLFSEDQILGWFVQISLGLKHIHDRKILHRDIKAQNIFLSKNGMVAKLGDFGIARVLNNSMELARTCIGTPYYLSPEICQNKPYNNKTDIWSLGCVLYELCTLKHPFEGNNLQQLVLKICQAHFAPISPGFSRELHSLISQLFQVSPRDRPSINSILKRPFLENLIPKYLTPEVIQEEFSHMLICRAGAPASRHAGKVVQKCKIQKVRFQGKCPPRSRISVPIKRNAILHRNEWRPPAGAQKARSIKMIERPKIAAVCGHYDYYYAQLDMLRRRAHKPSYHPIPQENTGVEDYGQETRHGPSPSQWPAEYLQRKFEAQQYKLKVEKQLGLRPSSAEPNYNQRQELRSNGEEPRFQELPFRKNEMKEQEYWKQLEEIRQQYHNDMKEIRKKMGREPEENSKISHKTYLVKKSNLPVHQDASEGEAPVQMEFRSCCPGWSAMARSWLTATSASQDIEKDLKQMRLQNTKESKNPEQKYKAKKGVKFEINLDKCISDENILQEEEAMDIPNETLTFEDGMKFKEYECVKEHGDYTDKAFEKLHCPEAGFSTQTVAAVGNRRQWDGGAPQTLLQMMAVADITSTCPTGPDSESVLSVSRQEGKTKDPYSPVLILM

NEK4 (human) = NEK4 (human) (UniProt P51957)
NEK9 (human) = NEK9 (human) (UniProt Q8TD19)
PLK2 (human) = PLK2 (human) (UniProt Q9NYY3)
MAP3K6 (human) = MAP3K6 (human) (UniProt O95382)
PRKAA2 (human) = PRKAA2 (human) (UniProt P54646)
CDKL1 (human) = CDKL1 (human) (UniProt Q00532)
CDKL1 (human), sequence (Q00532 whole entry, looked up): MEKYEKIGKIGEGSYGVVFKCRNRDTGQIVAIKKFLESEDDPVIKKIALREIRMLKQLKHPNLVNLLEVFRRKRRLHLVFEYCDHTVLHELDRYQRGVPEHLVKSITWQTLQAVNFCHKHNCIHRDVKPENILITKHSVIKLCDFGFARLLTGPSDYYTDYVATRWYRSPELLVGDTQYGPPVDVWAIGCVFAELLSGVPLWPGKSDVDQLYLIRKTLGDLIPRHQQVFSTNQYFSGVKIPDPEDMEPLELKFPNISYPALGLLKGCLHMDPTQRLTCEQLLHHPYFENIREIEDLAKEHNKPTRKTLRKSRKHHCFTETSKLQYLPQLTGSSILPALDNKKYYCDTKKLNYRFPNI

MAPKAPK2 (human) = MAPKAPK2 (human) (UniProt P49137)
KDR (human) = KDR (human) (UniProt P35968)
KDR (human), sequence (P35968 whole entry, looked up): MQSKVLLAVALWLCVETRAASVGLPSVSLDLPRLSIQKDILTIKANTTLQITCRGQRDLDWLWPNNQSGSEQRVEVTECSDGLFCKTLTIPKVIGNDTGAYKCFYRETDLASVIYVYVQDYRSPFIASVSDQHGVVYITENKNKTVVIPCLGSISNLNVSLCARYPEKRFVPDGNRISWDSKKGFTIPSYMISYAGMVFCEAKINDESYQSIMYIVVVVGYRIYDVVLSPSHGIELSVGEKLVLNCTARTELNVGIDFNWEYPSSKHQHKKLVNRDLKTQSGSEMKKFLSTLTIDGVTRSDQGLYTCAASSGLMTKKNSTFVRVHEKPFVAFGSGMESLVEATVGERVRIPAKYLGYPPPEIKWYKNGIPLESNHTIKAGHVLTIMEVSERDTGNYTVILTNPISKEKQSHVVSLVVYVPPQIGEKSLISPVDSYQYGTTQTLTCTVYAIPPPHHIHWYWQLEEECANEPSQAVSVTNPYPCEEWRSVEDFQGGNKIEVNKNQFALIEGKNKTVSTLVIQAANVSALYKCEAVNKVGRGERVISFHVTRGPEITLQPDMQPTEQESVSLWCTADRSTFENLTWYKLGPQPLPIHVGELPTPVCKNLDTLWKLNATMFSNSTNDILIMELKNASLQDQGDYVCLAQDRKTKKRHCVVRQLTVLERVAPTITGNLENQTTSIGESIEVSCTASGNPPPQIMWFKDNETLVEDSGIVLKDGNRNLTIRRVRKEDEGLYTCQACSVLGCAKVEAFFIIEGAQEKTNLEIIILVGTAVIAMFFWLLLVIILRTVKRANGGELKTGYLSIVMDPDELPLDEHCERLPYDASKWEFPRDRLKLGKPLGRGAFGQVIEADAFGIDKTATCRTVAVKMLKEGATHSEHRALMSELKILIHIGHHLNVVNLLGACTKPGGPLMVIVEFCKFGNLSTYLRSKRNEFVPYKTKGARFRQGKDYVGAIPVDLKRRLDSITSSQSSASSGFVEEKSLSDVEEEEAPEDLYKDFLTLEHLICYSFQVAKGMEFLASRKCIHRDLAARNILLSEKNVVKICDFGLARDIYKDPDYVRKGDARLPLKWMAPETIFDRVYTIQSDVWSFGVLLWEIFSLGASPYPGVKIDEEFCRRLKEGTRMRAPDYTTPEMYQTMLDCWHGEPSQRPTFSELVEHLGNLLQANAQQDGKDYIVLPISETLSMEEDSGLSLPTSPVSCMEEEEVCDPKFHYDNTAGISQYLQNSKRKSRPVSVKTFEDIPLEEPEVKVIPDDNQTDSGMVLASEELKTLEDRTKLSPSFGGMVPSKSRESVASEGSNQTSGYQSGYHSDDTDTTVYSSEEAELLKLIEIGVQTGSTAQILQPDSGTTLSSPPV

HIPK3 (human) = HIPK3 (human) (UniProt Q9H422)
HIPK3 (human), sequence (Q9H422 whole entry, looked up): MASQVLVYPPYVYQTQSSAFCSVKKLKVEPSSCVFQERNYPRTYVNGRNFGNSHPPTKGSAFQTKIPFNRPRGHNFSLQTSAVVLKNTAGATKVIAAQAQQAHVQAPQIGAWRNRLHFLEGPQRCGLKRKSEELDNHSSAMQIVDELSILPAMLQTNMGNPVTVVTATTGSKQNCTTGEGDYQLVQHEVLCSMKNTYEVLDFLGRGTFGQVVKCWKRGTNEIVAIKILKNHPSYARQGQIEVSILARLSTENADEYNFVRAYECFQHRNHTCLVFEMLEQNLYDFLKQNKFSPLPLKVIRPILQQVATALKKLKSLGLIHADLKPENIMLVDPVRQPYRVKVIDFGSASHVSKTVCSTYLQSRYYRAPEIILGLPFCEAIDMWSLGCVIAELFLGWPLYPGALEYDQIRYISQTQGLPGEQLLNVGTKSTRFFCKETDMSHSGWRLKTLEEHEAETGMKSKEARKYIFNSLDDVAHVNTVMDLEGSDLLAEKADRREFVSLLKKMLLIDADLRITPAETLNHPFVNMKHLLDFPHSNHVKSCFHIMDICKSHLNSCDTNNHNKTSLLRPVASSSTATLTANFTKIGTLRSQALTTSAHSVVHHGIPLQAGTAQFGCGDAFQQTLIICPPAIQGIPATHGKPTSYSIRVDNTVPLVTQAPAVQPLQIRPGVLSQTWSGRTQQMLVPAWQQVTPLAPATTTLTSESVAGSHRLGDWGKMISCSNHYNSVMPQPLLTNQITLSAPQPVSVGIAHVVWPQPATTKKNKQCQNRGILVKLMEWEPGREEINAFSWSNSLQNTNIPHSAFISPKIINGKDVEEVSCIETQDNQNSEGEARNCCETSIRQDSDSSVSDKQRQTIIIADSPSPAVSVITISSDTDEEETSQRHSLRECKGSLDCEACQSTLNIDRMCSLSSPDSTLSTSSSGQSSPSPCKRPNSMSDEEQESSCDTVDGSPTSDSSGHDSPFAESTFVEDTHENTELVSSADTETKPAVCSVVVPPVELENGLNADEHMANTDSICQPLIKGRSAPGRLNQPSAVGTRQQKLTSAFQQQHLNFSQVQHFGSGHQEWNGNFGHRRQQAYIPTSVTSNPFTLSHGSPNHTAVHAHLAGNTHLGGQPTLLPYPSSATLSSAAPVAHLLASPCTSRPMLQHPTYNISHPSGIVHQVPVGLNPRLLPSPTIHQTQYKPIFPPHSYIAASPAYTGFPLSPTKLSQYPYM

RPS6KA5 KD1 (human) = RPS6KA5 KD1 (human) (UniProt O75582)
MAPK15 (human) = MAPK15 (human) (UniProt Q8TD08)
MAPK15 (human), sequence (Q8TD08 whole entry, looked up): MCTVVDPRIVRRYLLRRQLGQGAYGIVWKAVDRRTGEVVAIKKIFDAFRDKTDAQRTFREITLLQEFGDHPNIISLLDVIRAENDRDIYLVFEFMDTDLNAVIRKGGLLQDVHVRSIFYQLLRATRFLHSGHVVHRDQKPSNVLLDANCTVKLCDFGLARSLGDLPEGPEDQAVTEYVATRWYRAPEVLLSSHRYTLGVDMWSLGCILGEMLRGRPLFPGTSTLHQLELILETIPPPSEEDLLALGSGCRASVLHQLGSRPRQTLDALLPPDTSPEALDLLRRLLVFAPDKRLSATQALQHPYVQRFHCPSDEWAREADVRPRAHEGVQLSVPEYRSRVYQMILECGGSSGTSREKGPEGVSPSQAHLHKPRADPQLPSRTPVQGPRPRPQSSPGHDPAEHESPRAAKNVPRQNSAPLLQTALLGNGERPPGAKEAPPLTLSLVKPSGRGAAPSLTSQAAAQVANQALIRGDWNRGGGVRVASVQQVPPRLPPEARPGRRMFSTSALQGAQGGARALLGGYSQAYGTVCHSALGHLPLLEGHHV

BMPR2 (human) = BMPR2 (human) (UniProt Q13873)
CDK11B (human) = CDK11B (human) (UniProt P21127)

With CCc1ccc(C(=O)Nc2cc(CN3CCN(C)CC3)cc(C(F)(F)F)c2)cc1C#Cc1cnc2ccnn2c1 the kinase still bound, per cent of control [1] was 100%, the kinase still bound, per cent of control (PAK1 (human)) was 75% and the kinase still bound, per cent of control (IRAK3 (human)) was 80%. It also gave a kinase still bound, per cent of control (MAP2K7 (human)) of 100%, a kinase still bound, per cent of control [2] of 86% and a kinase still bound, per cent of control (MKNK2 (human)) of 100%. For the same compound, the kinase still bound, per cent of control (RPS6KA1 KD2 (human)) was 100%, the kinase still bound, per cent of control [3] was 48% and the kinase still bound, per cent of control (TBK1 (human)) was 100%. The kinase still bound, per cent of control (SBK1 (human)) was 73%, the kinase still bound, per cent of control (NEK11 (human)) was 91% and the kinase still bound, per cent of control (PIK3CA (human)) was 100%. The kinase still bound, per cent of control (TAOK2 (human)) was 100%, the kinase still bound, per cent of control (PRKG2 (human)) was 100% and the kinase still bound, per cent of control (PHKG2 (human)) was 66%. For the same compound, the kinase still bound, per cent of control (PKN1 (human)) was 100%, the kinase still bound, per cent of control (MAPK11 (human)) was 100% and the kinase still bound, per cent of control (NEK7 (human)) was 95%. The kinase still bound, per cent of control (CDK7 (human)) was 100%, the kinase still bound, per cent of control (INSR (human)) was 86% and the kinase still bound, per cent of control (PKN2 (human)) was 74%. It also gave a kinase still bound, per cent of control (PRKCD (human)) of 100%, a kinase still bound, per cent of control (NEK5 (human)) of 100% and a kinase still bound, per cent of control (NEK4 (human)) of 100%. For the same compound, the kinase still bound, per cent of control (NEK9 (human)) was 100%, the kinase still bound, per cent of control (PLK2 (human)) was 100% and the kinase still bound, per cent of control (MAP3K6 (human)) was 100%. For the same compound, the kinase still bound, per cent of control (PRKAA2 (human)) was 100%, the kinase still bound, per cent of control (CDKL1 (human)) was 100% and the kinase still bound, per cent of control (MAPKAPK2 (human)) was 100%. The kinase still bound, per cent of control (KDR (human)) was 100%, the kinase still bound, per cent of control (HIPK3 (human)) was 100% and the kinase still bound, per cent of control (RPS6KA5 KD1 (human)) was 93%. It also gave a kinase still bound, per cent of control (MAPK15 (human)) of 100%, a kinase still bound, per cent of control (BMPR2 (human)) of 90% and a kinase still bound, per cent of control (CDK11B (human)) of 100%.
